Drawing on ChEMBL document CHEMBL1121631, “Quantitative structure-activity relationships by distance geometry: systematic analysis of dihydrofolate reductase inhibitors” (J Med Chem, 1980), this text covers Delta G for 53 compounds.

Each structure is given as a SMILES string.

The subject of the experiment is Dihydrofolate reductase (Enterococcus faecium).

`Nc1nc(N)c2c([S+]([O-])c3ccc4ccccc4c3)cccc2n1` (stereo not drawn) registered a Delta G of -6.9 kcal.

`Nc1nc(N)c2cc(CNc3ccc(C(=O)O)cc3)ccc2n1` had a Delta G of -13 kcal.

`Nc1nc(O)c2cc(S(=O)(=O)c3ccc(Cl)c(Cl)c3)ccc2n1` came in with a Delta G of -8.2 kcal.

Compound `CCOC(=O)c1ccc(CNc2ccc3nc(N)nc(O)c3c2)cc1` came in with a Delta G of -8.6 kcal.

`Nc1nc(O)nc2ccc(Sc3ccc4ccccc4c3)cc12` came in with a Delta G of -6.9 kcal.

`CCCCOC(=O)c1ccc(NCc2ccc3nc(N)nc(N)c3c2C)cc1` displayed a Delta G of -12.1 kcal.

Consider `CCOC(=O)c1ccc(CNc2ccc3nc(N)nc(O)c3c2C)cc1`, for which the Delta G is -7.1 kcal.

In turn, `Nc1nc(N)c2cc(Sc3ccc(Cl)c(Cl)c3)ccc2n1` displayed a Delta G of -12.2 kcal.

As for `Nc1nc(N)c2cc(S(=O)(=O)c3ccc4ccccc4c3)ccc2n1`, the Delta G is -12.4 kcal.

`Nc1ncnc2ccc(S(=O)(=O)c3ccc4ccccc4c3)cc12` yielded a Delta G of -5.8 kcal.

The compound `Nc1nc(O)c2cc(Sc3ccc4ccccc4c3)ccc2n1` showed a Delta G of -10.2 kcal.

In the case of `CCOC(=O)c1ccc(CNc2ccc3nc(N)nc(N)c3c2Cl)cc1`, the Delta G is -12.2 kcal.

On to `Nc1nc(O)c2cc(CNc3ccc(C(=O)O)cc3)ccc2n1`, for which the Delta G was -8.8 kcal.

`CCOC(=O)c1ccc(NCc2ccc3nc(N)nc(N)c3c2)cc1` displayed a Delta G of -11.4 kcal.

With `Nc1nc(O)c2cc(Sc3ccc(Cl)c(Cl)c3)ccc2n1`, the Delta G was -9.1 kcal.

In the case of `Nc1nc(O)c2cc(NCc3ccc(C(=O)O)cc3)ccc2n1`, the Delta G is -7.2 kcal.

`Nc1nc(N)c2c(/C=C/c3ccc4ccccc4c3)cccc2n1` returned a Delta G of -10.7 kcal.

As to `Sc1nc(S)c2cc(Sc3ccc4ccccc4c3)ccc2n1`, the Delta G is -6 kcal.

`Nc1nc(S)c2cc(Sc3ccc4ccccc4c3)ccc2n1` came in with a Delta G of -9.3 kcal.

Compound `CCOC(=O)c1ccc(NCc2ccc3nc(N)nc(O)c3c2)cc1` came in with a Delta G of -10.6 kcal.

As to `O=c1[nH]c(=O)c2cc(Sc3ccc4ccccc4c3)ccc2[nH]1`, the Delta G is -6.9 kcal.

Compound `Nc1nc(O)c2c(S(=O)(=O)c3ccc4ccccc4c3)cccc2n1` came in with a Delta G of -9 kcal.

`Nc1nc(N)c2c(CCc3ccc4ccccc4c3)cccc2n1` yielded a Delta G of -11.9 kcal.

In turn, `Nc1nc(N)c2c(Sc3ccc(Cl)c(Cl)c3)cccc2n1` showed a Delta G of -9.9 kcal.

Compound `Cc1c(CNc2ccc(C(=O)NC(CC(=O)O)C(=O)O)cc2)ccc2nc(N)nc(N)c12` (stereo not drawn) showed a Delta G of -12.7 kcal.

`O=c1[nH]c(=S)c2cc(Sc3ccc4ccccc4c3)ccc2[nH]1` displayed a Delta G of -6.9 kcal.

Compound `Nc1nc(N)c2c(CSc3ccc(Cl)cc3)cccc2n1` yielded a Delta G of -10.9 kcal.

`Nc1nc(N)c2cc(S(=O)(=O)c3ccc(Cl)c(Cl)c3)ccc2n1` showed a Delta G of -13.4 kcal.

Turning to `Nc1nc(O)c2c(Sc3ccc4ccccc4c3)cccc2n1`, the Delta G is -7.4 kcal.

Compound `Nc1nc(O)c2cc([S+]([O-])c3ccc4ccccc4c3)ccc2n1` (stereo not drawn) yielded a Delta G of -8.2 kcal.

On to `Oc1nc(S)nc2ccc(Sc3ccc4ccccc4c3)cc12`, for which the Delta G is -6.2 kcal.

In turn, `Nc1nc(N)c2cc(Sc3cccc(C(F)(F)F)c3)ccc2n1` came in with a Delta G of -13.4 kcal.

Consider `Cc1c(NCc2ccc(C(=O)O)cc2)ccc2nc(N)nc(O)c12`, for which the Delta G is -6.5 kcal.

As to `Nc1ncnc2ccc(Sc3ccc4ccccc4c3)cc12`, the Delta G is -6.5 kcal.

In turn, `Nc1nc(N)c2c(Cl)c(CNc3ccc(C(=O)O)cc3)ccc2n1` yielded a Delta G of -12.3 kcal.

Compound `Nc1nc(N)c2cc([S+]([O-])c3ccc4ccccc4c3)ccc2n1` (stereo not drawn) registered a Delta G of -12.8 kcal.

`CCOC(=O)c1ccc(CNc2ccc3nc(N)nc(N)c3c2C)cc1` gave a Delta G of -13.1 kcal.

As to `Nc1nc(N)c2c(Sc3ccc4ccccc4c3)cccc2n1`, the Delta G was -10.9 kcal.

With `CCOC(=O)c1ccc(NCc2ccc3nc(N)nc(N)c3c2C)cc1`, the Delta G is -12.3 kcal.

For the compound `Nc1nc(N)c2c(S(=O)(=O)c3ccc4ccccc4c3)cccc2n1`, the Delta G is -6.5 kcal.

With `Nc1nc(N)c2c([S+]([O-])c3ccc(Cl)c(Cl)c3)cccc2n1` (stereo not drawn), the Delta G was -7.3 kcal.

Regarding `Cc1c(CNc2ccc(C(=O)O)cc2)ccc2nc(N)nc(N)c12`, the Delta G is -11.8 kcal.

Compound `CCOC(=O)c1ccc(CNc2ccc3nc(N)nc(O)c3c2Cl)cc1` yielded a Delta G of -9.3 kcal.

As to `Nc1nc(N)c2c(/C=C\c3ccc4ccccc4c3)cccc2n1`, the Delta G was -11.1 kcal.

Consider `CCCCOC(=O)c1ccc(NCc2ccc3nc(N)nc(N)c3c2Cl)cc1`, for which the Delta G is -11.4 kcal.

The compound `CCOC(=O)c1ccc(CNc2ccc3nc(N)nc(N)c3c2)cc1` showed a Delta G of -11 kcal.

In turn, `Nc1nc(S)c2cc(S(=O)(=O)c3ccc4ccccc4c3)ccc2n1` displayed a Delta G of -8 kcal.

Take `Nc1nc(S)nc2ccc(Sc3ccc4ccccc4c3)cc12`: the Delta G was -7.4 kcal.

On to `CCCCOC(=O)c1ccc(NCc2ccc3nc(N)nc(N)c3c2)cc1`, for which the Delta G was -11.2 kcal.

`Nc1nc(N)c2c(S(=O)(=O)c3ccc(Cl)c(Cl)c3)cccc2n1` had a Delta G of -9 kcal.

In turn, `Nc1nc(O)c2cc(S(=O)(=O)c3ccc4ccccc4c3)ccc2n1` displayed a Delta G of -9.6 kcal.

`Nc1ncnc2ccc([S+]([O-])c3ccc4ccccc4c3)cc12` (stereo not drawn): the Delta G was -7.2 kcal.

`CCOC(=O)c1ccc(NCc2ccc3nc(N)nc(N)c3c2Cl)cc1` had a Delta G of -12.8 kcal.
